Assay results from patent publication US5352705A, “Inhibitors of farnesyl protein transferase” (Merck & Co., Inc., priority 1992, dated 1994).
pIC50: −log10 of the molar value.

molecular target: T1, Farnesyl-protein transferase (Ftase) from bovine brain (Bos taurus, UniProt P29702+P49355); assay: In vitro inhibition of ras farnesyl transferase; type: biochemical; settings: Ras-CVLS 3.5 μM, 0.25 μM [3H]FPP, partially purified bovine brain enzyme; read-out: IC50 (concentration of compound which gives 50% inhibition of FTase under the described assay conditions)
T1 construct: Farnesyl-protein transferase (Ftase) from bovine brain was chromatographed on DEAE-Sephacel; from tissue; host or cells: bovine brain, partially purified (DEAE-Sephacel, N-octyl agarose, mono Q HPLC)
Experimental: In vitro inhibition of ras farnesyl transferase
Farnesyl-protein transferase (Ftase) from bovine brain was chromatographed on DEAE-Sephacel (Pharmacia, 0-0.8 M NaC1 gradient elution), N-octyl agarose (Sigma, 0-0.6 M Nacl gradient elution), and a mono Q HPLC column (Pharmacia, 0-0.3 M NaC1 gradient). Ras-CVLS at 3.5 μM, 0.25 μM [3H]FPP, and the indicated compounds were incubated with this partially purified enzyme preparation. The Ftase data presented below is a measurement of the ability of the test compound to inhibit RAS farnesylation in vitro.
*(IC50 is the concentration of compound which gives 50% inhibition o
FTase under the described assay conditions)

pIC50	Compound
7.60	CC[C@H](C)[C@H](NC[C@@H](N)CS)C(=O)NCc1cccc(Cl)c1Cl [N-[2(R)-Amino-3-mercaptopropyl]-L-isoleucine-2,3-dichlorobenzylamide]
7.46	CC[C@H](C)[C@H](NC[C@@H](N)CS)C(=O)Nc1cccc(C)c1C [N-[2(R)-amino-3-mercaptopropyl]-L-isoleucine-2,3-dimethylphenylamide]
7.20	CC[C@H](C)[C@H](NC[C@@H](N)CS)C(=O)NCCc1cccc(Cl)c1 [N-[2(R)-Amino-3-mercaptopropyl]-L-isoleucine-3-chlorophenethylamide]
7.20	CC[C@H](C)[C@H](NC[C@@H](N)CS)C(=O)Nc1ccccc1 [N-[2(R)-amino-3-mercaptopropyl]-L-isoleucine-anilide]

system: Ras farnesylation; assay: not given; settings: cited from earlier work

Compound	Inhibition of Ras farnesylation in vivo
CC[C@H](C)C(=O)O[C@H]1C[C@@H](C)C=C2C=C[C@H](C)[C@H](CC[C@@H]3C[C@@H](O)CC(=O)O3)[C@H]21 [lovastatin]	Inhibition of Ras farnesylation in vivo has been demonstrated
CC[C@H](C)C(=O)O[C@H]1CCC=C2C=C[C@H](C)[C@H](CC[C@@H]3C[C@@H](O)CC(=O)O3)[C@H]21 [compactin]	Inhibition of Ras farnesylation in vivo has been demonstrated
